Experiment [1] has as its target T1, P-glycoprotein (P-gp, ABCB1) (Homo sapiens, UniProt P08183).
T1 construct: inside-out membrane vesicles prepared from HEK293 cells overexpressing human P-gp
The experiment can be described thus: inside-out vesicular transport inhibition assay with tritiated probe substrate; also Caco-2 bidirectional transport ([…]). Type of experiment: biochemical.

In experiment [2] the target is T1, P-glycoprotein (P-gp, ABCB1). Nature of the experiment: inside-out vesicular transport inhibition assay with tritiated probe substrate. The experiment is classed as biochemical.

T1 sequence (P08183 whole entry): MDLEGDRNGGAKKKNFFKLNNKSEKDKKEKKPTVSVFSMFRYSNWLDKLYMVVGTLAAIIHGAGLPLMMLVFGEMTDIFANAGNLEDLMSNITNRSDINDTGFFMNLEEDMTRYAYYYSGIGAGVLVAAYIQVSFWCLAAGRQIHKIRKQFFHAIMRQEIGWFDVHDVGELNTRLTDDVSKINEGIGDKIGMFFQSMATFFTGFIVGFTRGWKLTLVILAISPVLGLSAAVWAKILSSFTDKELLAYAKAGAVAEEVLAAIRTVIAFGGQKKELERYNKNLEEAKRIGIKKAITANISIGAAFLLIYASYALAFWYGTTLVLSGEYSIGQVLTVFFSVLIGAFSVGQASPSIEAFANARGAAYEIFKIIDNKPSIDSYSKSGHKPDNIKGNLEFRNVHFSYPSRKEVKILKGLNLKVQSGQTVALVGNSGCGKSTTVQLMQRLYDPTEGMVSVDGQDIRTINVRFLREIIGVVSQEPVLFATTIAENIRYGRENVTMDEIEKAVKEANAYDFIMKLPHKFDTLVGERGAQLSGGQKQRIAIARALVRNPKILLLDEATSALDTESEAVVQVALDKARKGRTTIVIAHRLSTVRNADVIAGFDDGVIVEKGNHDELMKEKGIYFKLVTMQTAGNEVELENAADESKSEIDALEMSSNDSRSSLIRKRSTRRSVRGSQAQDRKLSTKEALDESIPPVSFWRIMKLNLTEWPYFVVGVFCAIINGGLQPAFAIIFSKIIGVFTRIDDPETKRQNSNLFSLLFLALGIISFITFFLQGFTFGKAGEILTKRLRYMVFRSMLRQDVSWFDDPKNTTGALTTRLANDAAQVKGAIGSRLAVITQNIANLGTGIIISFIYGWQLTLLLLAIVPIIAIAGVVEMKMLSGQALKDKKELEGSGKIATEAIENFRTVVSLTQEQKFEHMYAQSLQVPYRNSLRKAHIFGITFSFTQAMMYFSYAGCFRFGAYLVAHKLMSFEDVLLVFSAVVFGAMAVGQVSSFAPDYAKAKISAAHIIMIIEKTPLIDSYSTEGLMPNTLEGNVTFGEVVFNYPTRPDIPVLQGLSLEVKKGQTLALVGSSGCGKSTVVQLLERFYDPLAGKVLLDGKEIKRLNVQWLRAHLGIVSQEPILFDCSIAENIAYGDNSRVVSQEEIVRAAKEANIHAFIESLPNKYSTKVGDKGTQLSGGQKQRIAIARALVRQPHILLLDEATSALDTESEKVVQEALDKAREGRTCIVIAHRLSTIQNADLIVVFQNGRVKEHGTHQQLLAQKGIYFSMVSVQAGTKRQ

Take `CC#CC(=O)N1CCC[C@H]1c1nc(-c2ccc(C(=O)Nc3ccccn3)cc2)c2c(N)nccn12` [acalabrutinib]: 57 µM corresponded to half-maximal inhibition in experiment [1] (IC50). Take `C=CC(=O)N1CCC[C@@H](n2nc(-c3ccc(Oc4ccccc4)cc3)c3c(N)ncnc32)C1` [ibrutinib]: the midpoint of inhibition in experiment [2], the IC50, lay at 6 µM.

The IC50 is the concentration needed to halve the response being measured. A high value points to weaker potency.

Source of the values: paper PMC8316236, “Mechanistic physiology-based pharmacokinetic modeling to elucidate vincristine-induced peripheral neuropathy following treatment with novel kinase inhibitors” (Cancer Chemotherapy and Pharmacology, 2021).
